Measured values reported in patent US20260226066A1, “PGDH INHIBITORS AND METHODS OF MAKING AND USING” (Epirium Bio Inc., priority 2023, published 2026).

How the values were obtained:
A549 = A549 EC50 (cell assay, no method described); format: cell-based
15-PGDH/HPGD = biological target: T1, 15-PGDH/HPGD (Homo sapiens, UniProt P15428); assay: hPGDH inhibitor screening biochemical assay; conditions: 10 nM enzyme, fluorescence ex/em 340/485 nm
T1 construct: purchased R&D System 5660-DH
T1 sequence (P15428 1-266): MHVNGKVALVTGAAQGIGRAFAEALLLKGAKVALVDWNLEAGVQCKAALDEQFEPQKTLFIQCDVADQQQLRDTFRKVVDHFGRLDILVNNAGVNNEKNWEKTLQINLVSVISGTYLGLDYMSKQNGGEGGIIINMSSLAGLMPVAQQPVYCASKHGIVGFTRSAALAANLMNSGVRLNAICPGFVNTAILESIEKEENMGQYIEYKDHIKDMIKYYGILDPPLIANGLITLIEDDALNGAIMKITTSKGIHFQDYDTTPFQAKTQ
Description: A hydroxyprostaglandin dehydrogenase inhibition screening biochemical assay can be performed to assess the synthesized inhibitors provided herein. Provided herein is an exemplary biochemical assay for hPGDH inhibitor screening.
The in vitro biochemical assay can be performed in white, 384 plates in total 20 μl reaction volume consisting of 10 nM of 15-PGDH/HPGD (R&D System #5660-DH), 15 µM Prostaglandin E2 (Sigma, Cat #P5640-10MG) and 0.25 mM β-Nicotinamide adenine dinucleotide sodium salt (Sigma, Cat #N0632-5G) made in reaction buffer (50 mM Tris-HCl, pH 7.5, 0.01% Tween 20) at 10-point dose response curve for test/tool compounds. Briefly, 5 μl (4×) of compounds solution and 5 μl (final concentration, 10 nM) of enzyme solution is added to white 384 well plates and incubated for 10 mins at 37° C. 5 μl (4×) of Prostaglandin E2 and 5 μl (4×) of β-Nicotinamide adenine dinucleotide sodium salt is added to the wells and incubated for 10 mins at room temperature. Fluorescence is recorded at ex/em=340 nm/485 nm.

EC50 (A549; Homo sapiens, A549, A549)	IC50 (15-PGDH/HPGD)	EC50 (A549; A549)	SMILES
≥ 1000 nM	< 100 nM		CC(=O)Nc1ccc(-c2cncc(-n3ncc4cc([S+]([O-])C5CCCC5)cnc43)c2)cc1 (single isomer, unassigned) [Compound 12B]
< 100 nM	< 100 nM		CCOC(=O)Nc1cncc(-n2ccc3cc([S+]([O-])C4CCC(F)(F)CC4)cnc32)c1 (stereo not shown) [Compound 73]
	< 100 nM	100 to 1000 nM	O=C(O)c1ccc(-n2ncc3cc([S+]([O-])C4CC(F)(F)C4)cnc32)cc1 (single isomer, unassigned) [Compound 10B]
	< 100 nM	≥ 1000 nM	O=C(O)c1ccc(-n2ccc3cc([S+]([O-])C4CCC4)cnc32)cc1 (single isomer, unassigned) [Compound 49A]
	< 100 nM	100 to 1000 nM	CC(C)CC[S+]([O-])c1cnc2c(ccn2-c2cc(F)cc(-c3nnc[nH]3)c2)c1 (single isomer, unassigned) [Compound 52A]
≥ 1000 nM	< 100 nM		[O-][S+](c1cnc2c(ccn2-c2cccc(-c3nnc[nH]3)c2)n1)C1CCC1 (stereo not shown) [Compound 111A]
≥ 1000 nM	100 to 1000 nM		[O-][S+](c1cnc2c(cnn2-c2cccc(-c3nnc[nH]3)c2)c1)C1CCOCC1 (stereo not shown) [Compound 38]
≥ 1000 nM	100 to 1000 nM		COC1CC([S+]([O-])c2cnc3c(cnn3-c3cccc(-c4nnc[nH]4)c3)c2)C1 (single isomer, unassigned) [Compound 105A]
< 100 nM	< 100 nM		CC(C)CC[S+]([O-])c1cnc2c(ccn2-c2cccc(-c3nnc[nH]3)c2)c1 (single isomer, unassigned) [Compound 54B]
	100 to 1000 nM	≥ 1000 nM	O=c1ccc(-c2cccc(-n3ncc4cc([S+]([O-])C5CCC5)cnc43)c2)c[nH]1 (stereo not shown) [Compound 96B]
< 100 nM	< 100 nM		[O-][S+](c1cnc2c(ccn2-c2cccc(-c3nnc[nH]3)c2)c1)C1CCCC1 (single isomer, unassigned) [Compound 59B]
	< 100 nM	100 to 1000 nM	CC1CC([S+]([O-])c2cnc3c(cnn3-c3cccc(-c4nnc[nH]4)c3)c2)C1 (stereo not shown) [Compound 120C]
	< 100 nM	100 to 1000 nM	COCCC[S+]([O-])c1cnc2c(cnn2-c2cncc(-c3nnc[nH]3)c2)c1 (stereo not shown) [Compound 102A]
	100 to 1000 nM		Cc1nnc(-c2cccc(-n3ncc4cc([S+]([O-])C5CCC5)cnc43)c2)[nH]1 (stereo not shown) [Compound 92A]
	< 100 nM		CCOC(=O)Nc1cncc(-n2ncc3cc(C(=O)CC4CCC4)cnc32)c1 [Compound 42]
	≥ 1000 nM		CCCC[S+]([O-])c1cnc2c(cnn2-c2cc(F)cc(NC(=O)OCC)c2)c1 (stereo not shown) [Compound 27B]
	100 to 1000 nM		CC(=O)Nc1cccc(-c2cncc(-n3ncc4cc([S+]([O-])C5CCCC5)cnc43)c2)c1 (single isomer, unassigned) [Compound 14B]
	≥ 1000 nM		COc1cc(-c2cccc(-n3ncc4cc([S+]([O-])C5CCC5)cnc43)c2)ccn1 (single isomer, unassigned) [Compound 93B]
	100 to 1000 nM		COc1ccc(-c2cccc(-n3ncc4cc([S+]([O-])C5CCC5)cnc43)c2)cn1 (stereo not shown) [Compound 90B]
	< 100 nM		CCOC(=O)Nc1cncc(-n2ccc3cc([S+]([O-])C4CC4)cnc32)c1 (stereo not shown) [Compound 67]
	100 to 1000 nM		O=c1cc(-c2cccc(-n3ncc4cc([S+]([O-])C5CCC5)cnc43)c2)cc[nH]1 (stereo not shown) [Compound 94B]
	< 100 nM		[O-][S+](c1cnc2c(cnn2-c2cccc(-c3ccc(O)nc3)c2)c1)C1CCC(F)(F)C1 (single isomer, unassigned) [Compound 5D]
≥ 1000 nM			CC1(O)CC([S+]([O-])c2cnc3c(cnn3-c3cccc(-c4nnc[nH]4)c3)c2)C1 (stereo not shown) [Compound 107A]

Continued, molecule first:

SMILES	EC50 (A549; Homo sapiens, A549, A549)	IC50 (15-PGDH/HPGD)	EC50 (A549; A549)
[O-][S+](c1cnc2c(cnn2-c2cccc(-c3ccnc(O)c3)c2)c1)C1CCC(F)(F)C1 (single isomer, unassigned) [Compound 3A]	≥ 1000 nM	≥ 1000 nM	
CCCCS(=O)(=O)c1cnc2c(cnn2-c2cccc(-c3nnc[nH]3)c2)c1 [Compound 30]	≥ 1000 nM	100 to 1000 nM	
CCCC[S+]([O-])c1cnc2c(cnn2-c2cccc(-c3nnc(C)[nH]3)c2)c1 (stereo not shown) [Compound 17B]		< 100 nM	< 100 nM
[O-][S+](c1cnc2c(cnn2-c2cccc(-c3nnc[nH]3)c2)c1)C1CC(F)(F)C1 (single isomer, unassigned) [Compound 7A]		100 to 1000 nM	
Cc1cc(-c2cccc(-n3ncc4cc([S+]([O-])C5CCC(F)(F)C5)cnc43)c2)ccn1 (stereo not shown) [Compound 11C]		100 to 1000 nM	≥ 1000 nM
O=S(=O)(c1cnc2c(cnn2-c2ccc(-c3nnc[nH]3)cc2)c1)C1CCOCC1 [Compound 37]		≥ 1000 nM	
CCCC[S+]([O-])c1cnc2c(cnn2-c2ccc(-c3nnc[nH]3)cc2)c1 (stereo not shown) [Compound 44]	100 to 1000 nM	< 100 nM	
COCC(C)(C)C[S+]([O-])c1cnc2c(cnn2-c2cccc(-c3nnc[nH]3)c2)c1 (single isomer, unassigned) [Compound 126A]		≥ 1000 nM	
CCCC[S@+]([O-])c1cnc2c(cnn2-c2cccc(-c3nnc[nH]3)c2)c1 (single isomer, unassigned) [Compound 36A, 1-(3-(4H-1,2,4-triazol-3-yl)phenyl)-5-(butylsulfinyl)-1H-pyrazolo[3,4-b]pyridine]		100 to 1000 nM	≥ 1000 nM
COCCC[S+]([O-])c1cnc2c(cnn2-c2ccc3nc(N4CCOCC4)nn3c2)c1 (single isomer, unassigned) [Compound 119A]		< 100 nM	100 to 1000 nM
[O-][S+](c1cnc2c(cnn2-c2cccc(-c3ccc(N4CCOCC4)nc3)c2)c1)C1CCC1 (stereo not shown) [Compound 95B]		100 to 1000 nM	
COCCC[S+]([O-])c1cnc2c(cnn2-c2ccc(N3CCN(C)C3=O)nc2)c1 (single isomer, unassigned) [Compound 114B]		≥ 1000 nM	≥ 1000 nM
CC(C)(O)CC[S+]([O-])c1cnc2c(cnn2-c2cccc(-c3nnc[nH]3)c2)c1 (single isomer, unassigned) [Compound 108B]		< 100 nM	≥ 1000 nM
[O-][S+](c1cnc2c(cnn2-c2cccc(-c3ccnc(N4CCOCC4)c3)c2)c1)C1CCC1 (stereo not shown) [Compound 91A]		< 100 nM	
CC(C)(O)C[S+]([O-])c1cnc2c(cnn2-c2cccc(-c3nnc[nH]3)c2)c1 (single isomer, unassigned) [Compound 101A]	≥ 1000 nM	≥ 1000 nM	
CC(C)(O)CC[S+]([O-])c1cnc2c(cnn2-c2cccc(-c3nnc[nH]3)c2)c1 (single isomer, unassigned) [Compound 108A]	≥ 1000 nM	≥ 1000 nM	
COCCC[S+]([O-])c1cnc2c(cnn2-c2ccc(N3CCNC3=O)nc2)c1 (single isomer, unassigned) [Compound 116A]	≥ 1000 nM	< 100 nM	
[O-][S+](c1cnc2c(cnn2-c2cccc(-c3ccc(N4CCOCC4)nc3)c2)c1)C1CCC1 (stereo not shown) [Compound 95A]		< 100 nM	
COCCC[S+]([O-])c1cnc2c(cnn2-c2ccc(N3CCN(C)C3=O)nc2)c1 (single isomer, unassigned) [Compound 114A]	≥ 1000 nM	< 100 nM	
[O-][S+](c1cnc2c(cnn2-c2cccc(-c3nnc[nH]3)c2)c1)C1CCC(F)(F)C1 (single isomer, unassigned) [Compound 8A]		≥ 1000 nM	
CC(C)CC[S+]([O-])c1cnc2c(cnn2-c2ccc(CCCC(=O)O)c(F)c2)c1 (stereo not shown) [Compound 127A]		100 to 1000 nM	
COCCC[S+]([O-])c1cnc2c(ccn2-c2cccc(-c3nnc[nH]3)c2)n1 (stereo not shown) [Compound 103A]		100 to 1000 nM	
COCC(C)(C)C[S+]([O-])c1cnc2c(cnn2-c2cccc(-c3nnc[nH]3)c2)c1 (single isomer, unassigned) [Compound 126B]		< 100 nM	
[O-][S+](c1cnc2c(cnn2-c2cccc(-c3ccc(O)nc3)c2)c1)C1CCC(F)(F)C1 (single isomer, unassigned) [Compound 5B]		≥ 1000 nM	
[O-][S+](c1cnc2c(cnn2-c2cccc(-c3ccnc(N4CCOCC4)c3)c2)c1)C1CCC1 (stereo not shown) [Compound 91B]		100 to 1000 nM	
[O-][S+](c1cnc2c(cnn2-c2ccc3nc(N4CCOCC4)nn3c2)c1)C1CC(F)(F)C1 (stereo not shown) [Compound 117B]		100 to 1000 nM	
[O-][S+](c1cnc2c(cnn2-c2cccc(-c3nnc[nH]3)c2)c1)C1CCC(F)(F)C1 (single isomer, unassigned) [Compound 8B]		100 to 1000 nM	
CC(C)OC[S+]([O-])c1cnc2c(cnn2-c2cccc(-c3nnc[nH]3)c2)c1 (single isomer, unassigned) [Compound 2A, 1-(3-(4H-1,2,4-triazol-3-yl)phenyl)-5-((isopropoxymethyl)sulfinyl)-1H-pyrazolo[3,4-b]pyridine]		100 to 1000 nM	
[O-][S+](c1cnc2c(cnn2-c2ccc3nc(N4CCOCC4)nn3c2)c1)C1CC(F)(F)C1 (stereo not shown) [Compound 117A]		< 100 nM	
CC(C)CC[S+]([O-])c1cnc2c(cnn2-c2ccc(CCCC(=O)O)c(F)c2)c1 (stereo not shown) [Compound 127B]		< 100 nM	
